Measured values from paper PMC5735191, “Computational and biological profile of boronic acids for the detection of bacterial serine- and metallo-β-lactamases” (Scientific Reports, 2017).

Legend:
[1] = molecular target: VIM-2 (Escherichia coli, UniProt Q5U7L7)
From the text: VIM-2. The VIM-2 metallo-β-lactamase was purified from a 2 L culture of BL21-DE3/pET9-VIM-
2 as previously described3. Briefly, the protein was purified from the culture supernatant,
concentrated by ultrafiltration, and purified using two anion exchange chromatography steps,
followed by a final gel filtration step, as described. β-lactamase activity was monitored using the
The authenticity and purity of the final protein sample was
confirmed by ESI-MS and SDS-PAGE.
Protein purification methods and kinetic profile characterization details: the Table reports the
step-by-step purification procedure for each β-lactamase protein, indicating the β-lactam substrate
used for kinetic profile characterization (kcat, Km and specificity constant evaluation) and the
proper concentration of enzyme used in the assay for each BL class.

[2] = molecular target: NDM-1 (Klebsiella pneumoniae, UniProt C7C422)
Chain of NDM-1 (C7C422 29-270 limits assumed): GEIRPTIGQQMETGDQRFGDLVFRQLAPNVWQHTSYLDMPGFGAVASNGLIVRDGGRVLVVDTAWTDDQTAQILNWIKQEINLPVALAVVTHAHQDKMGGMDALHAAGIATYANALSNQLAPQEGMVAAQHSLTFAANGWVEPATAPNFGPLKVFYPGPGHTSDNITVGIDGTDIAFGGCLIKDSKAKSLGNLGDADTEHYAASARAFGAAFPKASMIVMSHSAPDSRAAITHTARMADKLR
Method: 24h at 37 °C. Cells were recovered by centrifugation (4,500 rpm, 4 °C, 20 min) and resuspended in
200 mL of buffer A (10 mM Hepes, 0.15 M NaCl, pH7.5). The cells were lyzed by sonication
(Sonopuls HD-2200) and the cell debris removed by centrifugation (12,000 rpm, 4 °C, 30 min) in
the presence of Protease Inhibitor Complete (Roche). The clarified sample was loaded onto a 5mL
HisTrap Fast Flow column (GE Healthcare). The protein was eluted with imidazole (350 mM in
buffer A) The active fractions were pooled, concentrated by ultrafiltration (Amicon Ultra 15, MW
cut-off, 10 kDa), desalted (Hi Prep 26/10 Desalting) in buffer B (20mM triethanolamine, 50 µM
ZnSO4, pH 7.2) to remove imidazole. β -lactamase activity was monitored using the hydrolysis rate
The authenticity and purity of the final protein sample was confirmed by

C[C@@H](O)[C@H]1C(=O)N2C(C(=O)O)=C(SCCN=CN)C[C@H]12 [Imipenem, imipenem]
kcat ([1]; β-lactam substrate of VIM-2): 8 ± 2 s⁻¹ | Km ([1]; β-lactam substrate of VIM-2, enzyme 0.043 µM): 11 ± 3 µM | kcat ([2]; β-lactam substrate of NDM-1): 520 ± 84 s⁻¹ | Km ([2]; β-lactam substrate of NDM-1, enzyme 0.021 µM): 58 ± 6 µM
